This is an account of results in US20250134869A1, “Pyrrolo[2,3-d]pyrimidinyl, Pyrrolo[2,3-b]pyrazinyl and Pyrrolo[2,3-d]pyridinyl Acryla-mides” (Pfizer Inc, priority 2021, published 2025).

Like-named read-outs stand apart in the source and are kept apart here.

The experiment deals with JAK3 enzyme (Homo sapiens (Human), UniProt P52333). As to the kind of experiment: JAK Caliper Enzyme Assay at 4 μM or 1 mM ATP. The format is biochemical.
[1] abbreviates: read-out: JAK3 (4 μM ATP) IC50, 4 μM ATP.
Where [2] appears, read: read-out: JAK3 (1 mM ATP) IC50, 1 mM ATP.

JAK3 enzyme, sequence (P52333 whole entry, species assumed): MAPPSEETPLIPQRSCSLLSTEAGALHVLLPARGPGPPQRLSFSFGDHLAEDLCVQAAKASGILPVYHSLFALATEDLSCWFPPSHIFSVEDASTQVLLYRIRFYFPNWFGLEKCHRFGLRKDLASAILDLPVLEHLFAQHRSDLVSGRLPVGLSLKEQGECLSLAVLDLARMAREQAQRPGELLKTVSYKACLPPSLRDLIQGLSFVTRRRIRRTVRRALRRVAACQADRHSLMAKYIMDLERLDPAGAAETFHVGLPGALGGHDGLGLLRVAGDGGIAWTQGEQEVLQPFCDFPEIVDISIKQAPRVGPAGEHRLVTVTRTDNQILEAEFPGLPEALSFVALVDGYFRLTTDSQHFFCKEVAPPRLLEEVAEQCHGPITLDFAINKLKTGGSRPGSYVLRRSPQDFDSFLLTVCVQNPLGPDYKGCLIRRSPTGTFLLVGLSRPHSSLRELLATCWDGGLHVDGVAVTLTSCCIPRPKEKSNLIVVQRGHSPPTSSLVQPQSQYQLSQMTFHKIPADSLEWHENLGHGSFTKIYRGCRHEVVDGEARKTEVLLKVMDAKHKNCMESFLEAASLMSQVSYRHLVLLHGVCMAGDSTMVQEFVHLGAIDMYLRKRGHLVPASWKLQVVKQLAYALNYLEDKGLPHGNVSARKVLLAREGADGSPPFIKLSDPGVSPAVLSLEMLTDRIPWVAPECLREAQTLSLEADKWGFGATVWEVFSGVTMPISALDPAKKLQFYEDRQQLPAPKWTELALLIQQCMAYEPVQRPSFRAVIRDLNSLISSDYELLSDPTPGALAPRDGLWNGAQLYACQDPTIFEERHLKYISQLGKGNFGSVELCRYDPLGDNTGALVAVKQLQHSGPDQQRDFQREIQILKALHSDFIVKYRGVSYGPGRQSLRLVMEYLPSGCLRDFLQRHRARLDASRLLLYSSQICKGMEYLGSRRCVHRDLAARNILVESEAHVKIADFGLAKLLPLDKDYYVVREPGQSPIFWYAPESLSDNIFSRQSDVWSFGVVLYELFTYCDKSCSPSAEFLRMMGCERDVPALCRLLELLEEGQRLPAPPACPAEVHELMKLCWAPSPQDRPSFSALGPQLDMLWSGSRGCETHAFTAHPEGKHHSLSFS

For the molecule `C=CC(=O)N1CCC[C@@H](Nc2ncnc3[nH]cc(-c4ccc5c(cnn5C)c4)c23)C1` [Example 34, 1-[(3R)-3-{[5-(1-methyl-1H-indazol-5-yl)-7H-pyrrolo[2,3-d]pyrimidin-4-yl]amino}piperidin-1-yl]prop-2-en-1-one], the IC50 (commonly the concentration that gives 50% inhibition) under setting [1] came out at 54.4 nM and the concentration for half-maximal inhibition (IC50) under setting [2] was 4820 nM. On to `C=CC(=O)N1CCC(Nc2cnc3[nH]cc(C(=O)NC(C)(C)C)c3n2)CC1` [Example 266, 2-[(1-acryloylpiperidin-4-yl)amino]-N-tert-butyl-5H-pyrrolo[2,3-b]pyrazine-7-carboxamide], for which the IC50 under setting [1] was found to be 0.3 nM and the IC50 under setting [2] was found to be 13.6 nM. Take `N#CCCc1c[nH]c2ncnc(N[C@@H]3CCCN(C(=O)/C=C/CO)C3)c12` [Example 158, 3-[4-({(3R)-1-[(2E)-4-Hydroxybut-2-enoyl]piperidin-3-yl}amino)-7H-pyrrolo[2,3-d]pyrimidin-5-yl]propanenitrile]: the 50% inhibitory concentration (IC50) under setting [1] was more than 10000 nM. Regarding `C=CC(=O)N1CCC(Nc2cnc3[nH]cc(C(=O)N[C@@H]4CCC[C@H]4F)c3n2)CC1` [Example 237, 2-[(1-acryloylpiperidin-4-yl)amino]-N-[(1R,2R)-2-fluorocyclopentyl]-5H-pyrrolo[2,3-b]pyrazine-7-carboxamide], the IC50 is, setting by setting: under setting [1], 0.2 nM; under setting [2], 7.8 nM. Regarding `O=C(/C=C/c1c[nH]cn1)N1CCC[C@@H](Nc2ncnc3[nH]ccc23)C1` [Example 107, (2E)-3-(1H-imidazol-4-yl)-1-[(3R)-3-(7H-pyrrolo[2,3-d]pyrimidin-4-ylamino)piperidin-1-yl]prop-2-en-1-one], the IC50 under setting [1] worked out at 1160 nM. With `C=CC(=O)N1CCC(Nc2cnc3[nH]cc(C(=O)N[C@H](C)COC)c3n2)CC1` [Example 268, 2-[(1-acryloylpiperidin-4-yl)amino]-N-[(2R)-1-methoxypropan-2-yl]-5H-pyrrolo[2,3-b]pyrazine-7-carboxamide], the IC50 runs as follows: under setting [1], 0.3 nM; under setting [2], 7.9 nM. Turning to `C=CC(=O)NC[C@@]12C[C@@H]1CN(c1cnc3[nH]cc(C(=O)NC(C)C)c3n1)C2` [Example 183, 2-{(1R,5S)-1-[(acryloylamino)methyl]-3-azabicyclo[3.1.0]hex-3-yl}-N-(propan-2-yl)-5H-pyrrolo[2,3-b]pyrazine-7-carboxamide], the IC50 is, setting by setting: under setting [1], 9.6 nM; under setting [2], 794 nM. Regarding `C#Cc1c[nH]c2ncnc(N3CC[C@H]4CCN(C(=O)C=C)C[C@H]43)c12` [Example 48, 1-[(3aS,7aS)-1-(5-ethynyl-7H-pyrrolo[2,3-d]pyrimidin-4-yl)octahydro-6H-pyrrolo[2,3-c]pyridin-6-yl]prop-2-en-1-one], the 50% inhibitory concentration (IC50) is, setting by setting: under setting [1], 0.8 nM; under setting [2], 101 nM. In the case of `C=CC(=O)N1CC[C@@]2(C)CCN(c3ncnc4[nH]ccc34)[C@H]2C1` [Example 122, 1-((3aR,7aR)-3a-Methyl-1-(7H-pyrrolo[2,3-d]pyrimidin-4-yl)hexahydro-1H-pyrrolo[2,3-c]pyridin-6 (2H)-yl)prop-2-en-1-one], the IC50 was 75.6 nM under setting [1] and more than 10000 nM under setting [2]. In the case of `C=CC(=O)N1CCC(Nc2cnc3[nH]cc(C(=O)N4CCC4)c3n2)CC1` [Example 284, 1-(4-{[7-(azetidin-1-ylcarbonyl)-5H-pyrrolo[2,3-b]pyrazin-2-yl]amino}piperidin-1-yl)prop-2-en-1-one], the IC50 stood at 1.9 nM under setting [1] and 176 nM under setting [2]. With `C=CC(=O)N1CC[C@@H](Nc2cnc3[nH]cc(C(=O)NC(C)C)c3n2)[C@H](O)C1` [Example 196, 2-{[(3R,4R)-1-acryloyl-3-hydroxypiperidin-4-yl]amino}-N-(propan-2-yl)-5H-pyrrolo[2,3-b]pyrazine-7-carboxamide], the IC50 reads like this: under setting [1], 0.3 nM; under setting [2], 30.6 nM. On the same counts, the results for `C=CC(=O)N1CCC(Nc2cnc3[nH]cc(-c4cccc(C(=O)NC)c4)c3n2)CC1` [Example 204, 3-{2-[(1-acryloylpiperidin-4-yl)amino]-5H-pyrrolo[2,3-b]pyrazin-7-yl}-N-methylbenzamide] are 0.5 nM and 49.3 nM. On to `CN(C)C/C=C/C(=O)N1CCC[C@@H](Nc2ncnc3[nH]cc(CCC#N)c23)C1` [Example 157, 3-[4-({(3R)-1-[(2E)-4-(Dimethylamino)but-2-enoyl]piperidin-3-yl}amino)-7H-pyrrolo[2,3-d]pyrimidin-5-yl]propanenitrile], for which, under setting [1], the IC50 came to 1470 nM.

Regarding `C=CC(=O)N1CCC[C@@H](Nc2c(C#N)cnc3[nH]ccc23)C1` [Example 156, 4-{[(3R)-1-Acryloylpiperidin-3-yl]amino}-1H-pyrrolo[2,3-b]pyridine-5-carbonitrile], the concentration for half-maximal inhibition (IC50) under setting [1] was determined as 7.2 nM.

Turning to `C=CC(=O)N1CCC[C@@H](Nc2ncnc3[nH]cc(CCC#N)c23)C1` [Example 62, 3-(4-{[(3R)-1-Acryloylpiperidin-3-yl]amino}-7H-pyrrolo[2,3-d]pyrimidin-5-yl)propanenitrile], the half-maximal inhibitory concentration (IC50) under setting [1] worked out at 9 nM and the IC50 under setting [2] was determined as 650 nM. On to `C=CC(=O)N1C[C@H](Nc2ncnc3[nH]cc(C#N)c23)CC[C@@H]1C` [Example 163, 4-{[(3R,6S)-1-Acryloyl-6-methylpiperidin-3-yl]amino}-7H-pyrrolo[2,3-d]pyrimidine-5-carbonitrile], for which the IC50 under setting [1] stood at 0.6 nM and the IC50 under setting [2] worked out at 47.1 nM. For `C=CC(=O)N1CCC[C@@H](Nc2ncnc3[nH]cc(C)c23)C1` [Example 43, 1-{(3R)-3-[(5-methyl-7H-pyrrolo[2,3-d]pyrimidin-4-yl)amino]piperidin-1-yl}prop-2-en-1-one], the IC50 by setting is: under setting [1], 1.2 nM; under setting [2], 99.5 nM.

For the molecule `C=CC(=O)N1Cc2ncn(C)c2C(Nc2ncnc3[nH]ccc23)C1` (centres unmarked) [Example 166, 1-[1-Methyl-7-(7H-pyrrolo[2,3-d]pyrimidin-4-ylamino)-1,4,6,7-tetrahydro-5H-imidazo[4,5-c]pyridin-5-yl]prop-2-en-1-one], the IC50 was 370 nM under setting [1] and more than 10000 nM under setting [2]. On the same counts, the results for `C=CC(=O)N1CCC[C@@H](Nc2ncnc3[nH]cc(CCO)c23)C1` [Example 55, (R)-1-(3-((5-(2-Hydroxyethyl)-7H-pyrrolo[2,3-d]pyrimidin-4-yl)amino)piperidin-1-yl)prop-2-en-1-one] are 2 nM and 203 nM. `C=CC(=O)N1CCN(c2cnc3[nH]cc(C(=O)NC(C)C)c3n2)CC1` [Example 174, 2-(4-acryloylpiperazin-1-yl)-N-(propan-2-yl)-5H-pyrrolo[2,3-b]pyrazine-7-carboxamide]: the half-inhibitory concentration (IC50) reads like this: under setting [1], 0.4 nM; under setting [2], 34.8 nM. In the case of `C=CC(=O)N1CCC(Nc2cnc3[nH]cc(-c4ccnc(C)c4)c3n2)CC1` [Example 201, 1-(4-{[7-(2-methylpyridin-4-yl)-5H-pyrrolo[2,3-b]pyrazin-2-yl]amino}piperidin-1-yl)prop-2-en-1-one], the IC50 is 0.5 nM under setting [1] and 28 nM under setting [2]. With `CC/C=C(\C#N)C(=O)N1CCC[C@@H](Nc2ncnc3[nH]ccc23)C1` [Example 99, (2E)-2-{[(3R)-3-(7H-pyrrolo[2,3-d]pyrimidin-4-ylamino)piperidin-1-yl]carbonyl}pent-2-enenitrile], the 50% inhibitory concentration (IC50) was 255 nM under setting [1] and more than 10000 nM under setting [2]. In the case of `C/C=C/C(=O)N1CCC[C@@H](Nc2ncnc3[nH]cc(CC(C)(C)O)c23)C1` [Example 159, (2E)-1-[(3R)-3-{[5-(2-Hydroxy-2-methylpropyl)-7H-pyrrolo[2,3-d]pyrimidin-4-yl]amino}piperidin-1-yl]but-2-en-1-one], the IC50 under setting [1] is more than 10000 nM. Consider `C=CC(=O)N1C[C@@H](Nc2ncnc3[nH]ccc23)[C@@H]2CC[C@H]1C2` [Example 126, 1-((1S,4S,5R)-4-(7H-pyrrolo[2,3-d]pyrimidin-4-ylamino)-2-azabicyclo[3.2.1]octan-2-yl)prop-2-en-1-one], for which the IC50 was 602 nM under setting [1] and more than 10000 nM under setting [2]. Turning to `C=CC(=O)N1CCC(Nc2cnc3[nH]cc(C(=O)NCC4CC(F)(F)C4)c3n2)CC1` [Example 238, 2-[(1-acryloylpiperidin-4-yl)amino]-N-[(3,3-difluorocyclobutyl)methyl]-5H-pyrrolo[2,3-b]pyrazine-7-carboxamide], the IC50 is 0.2 nM under setting [1] and 9.3 nM under setting [2]. As for `C=CC(=O)N1CCC(Nc2cnc3[nH]cc(C(=O)NCC(C)(F)F)c3n2)CC1` [Example 282, 2-[(1-acryloylpiperidin-4-yl)amino]-N-(2,2-difluoropropyl)-5H-pyrrolo[2,3-b]pyrazine-7-carboxamide], the IC50 under setting [1] stood at 0.2 nM and the half-maximal inhibitory concentration (IC50) under setting [2] is 12.9 nM. As to `C=CC(=O)N1CCC(Nc2cnc3[nH]cc(C(=O)NC4CCCC(F)(F)C4)c3n2)CC1` (centres unmarked) [Example 236, 2-[(1-acryloylpiperidin-4-yl)amino]-N-(3,3-difluorocyclohexyl)-5H-pyrrolo[2,3-b]pyrazine-7-carboxamide], the IC50 by setting is: under setting [1], 0.1 nM; under setting [2], 8.3 nM. Take `C=CC(=O)N1C[C@H](O)C[C@@H](Nc2ncnc3[nH]ccc23)C1` [Example 60, 1-((3R,5R)-3-((7H-Pyrrolo[2,3-d]pyrimidin-4-yl)amino)-5-hydroxypiperidin-1-yl)prop-2-en-1-one]: the IC50 is 4.2 nM under setting [1] and 603 nM under setting [2]. Consider `CN(C)C/C=C/C(=O)N1CCC[C@H](Nc2ncnc3[nH]ccc23)C1` [Example 106, (2E)-4-(dimethylamino)-1-[(3S)-3-(7H-pyrrolo[2,3-d]pyrimidin-4-ylamino)piperidin-1-yl]but-2-en-1-one], for which the IC50 under setting [1] came out at 49.1 nM.

For `C=CC(=O)N1CCC(Nc2cnc3[nH]cc(C(=O)N(C)C4CC4)c3n2)CC1` [Example 286, 2-[(1-acryloylpiperidin-4-yl)amino]-N-cyclopropyl-N-methyl-5H-pyrrolo[2,3-b]pyrazine-7-carboxamide], the half-maximal inhibitory concentration (IC50) was 15.9 nM under setting [1] and 814 nM under setting [2]. Consider `C=CC(=O)N1C[C@@H](O)C[C@@H](Nc2ncnc3[nH]ccc23)C1` [Example 17, 1-((3R,5S)-3-(7H-Pyrrolo[2,3-d]pyrimidin-4-ylamino)-5-hydroxypiperidin-1-yl)prop-2-en-1-one], for which the half-inhibitory concentration (IC50) stood at 1.7 nM under setting [1] and 92.2 nM under setting [2].
